Assay results published in PubChem BioAssay AID449762 (Southern Research Specialized Biocontainment Screening …, 2010).
Records with an inconclusive call do not appear.

Test system: M. tuberculosis H37Rv growth inhibition, 7H9 media
Experiment: M. tuberculosis growth inhibition, HTS (AID 449762);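 further: bacterial growth assessed after seven days of incubation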
Details: for IC90: measured here: IC90 growth inhibition

## COc1ccc(-c2c(C#Cc3ccsc3)c3ccccc3n2C)cc1
  IC50: 25.5 µM
  IC90: 37.8 µM

## Cc1ccc2nc(/C(C#N)=C/c3cn[nH]c3-c3ccc(F)cc3)[nH]c2c1
  IC50: 20.9 µM
  IC90: > 100 µM

## CCC(=O)c1ccc(OCC(=O)OCC(=O)c2cc(C)n(C3CC3)c2C)cc1
  IC50: 2.41 µM
  IC90: 74.8 µM

## COc1ccc(C(=O)/C=C/c2cc(OC)c(O)c(OC)c2)c(F)c1
  IC50: 34.6 µM
  IC90: 67 µM

## CC1=C(/C=C/C(C)=C/C=C/C(C)=C/C(=O)Nc2ccc(O)cc2)C(C)(C)CCC1
  IC50: 41.9 µM
  IC90: 59.8 µM

## CC(=O)OC1=Cc2c(ccc3ccc(=O)oc23)OC1(C)C
  IC50: 14 µM
  IC90: 31.6 µM

## O=C(c1cc2nc(-c3ccc(F)cc3)cc(C(F)(F)F)n2n1)N1CCCCC1c1cccnc1 (stereo unspecified)
  IC50: 14 µM
  IC90: 31.4 µM

## O=C(O)/C=C/C(=O)Nc1ccc(-c2ccccc2)cc1
  IC50: 34.3 µM
  IC90: > 100 µM

## CC(C)(C)c1ccc(Cn2c(=N)n(CC(O)c3ccco3)c3ccccc32)cc1 (stereo unspecified)
  IC50: 17.6 µM
  IC90: 22.2 µM

## O=C1C(SCCO)=C(SCCO)C(=O)c2ccccc21
  IC50: 6.06 µM
  IC90: 6.83 µM

## Cn1c(CNc2ccccc2O)nc2ccccc21
  IC50: 3.01 µM
  IC90: 3.52 µM

## Cc1cc2oc3ccc(NCCCn4ccnc4)cc3c(=O)c2cc1C
  IC50: 18.2 µM
  IC90: 27.5 µM

## O=C(/C=C/c1ccc([N+](=O)[O-])cc1)NC1CC2CCC1C2 (stereo unspecified)
  IC50: 44.6 µM
  IC90: 84.1 µM

## O=C(NC(=S)N1CCc2ccccc21)c1ccc(Br)o1
  IC50: 5.63 µM
  IC90: 9.62 µM

## Cc1cc(O)c2c(c1)C(=O)c1cc(O)cc(O)c1C2=O
  IC50: 91.5 µM
  IC90: > 100 µM

## CCOC(=O)c1nnc(-c2ccccc2)nc1Sc1ccccc1Cl
  IC50: 20.7 µM
  IC90: 49.2 µM

## CN(C)N=Nc1nc[nH]c1C(N)=O
  IC50: 4.86 µM
  IC90: 6.76 µM

## c1ccc(-c2n[nH]c(-c3ccccn3)n2)cc1
  IC50: 12.6 µM
  IC90: 19.3 µM

## CC(C)NC(=O)c1onc(CSc2ccc(F)c(F)c2)c1C(=O)O
  IC50: 11 µM
  IC90: 18.9 µM

## CCOC(=O)c1cc(C)nc(Sc2ccc(C)cc2)c1C#N
  IC50: 4.4 µM
  IC90: 11.3 µM

## COc1ccccc1-c1cc(C(=O)NC2CCN(C)CC2)c2ccc(Cl)c(C)c2n1
  IC50: 70.9 µM
  IC90: 95 µM

## Cc1cc(-c2c(C)[nH]n(-c3ccccc3)c2=O)n[nH]1
  IC50: 5.54 µM
  IC90: 25.5 µM

## COC(=O)c1c(NC(=O)CC2SC(N)=NC2=O)sc2c1CCC(C(C)(C)C)C2 (stereo unspecified)
  IC50: 34.4 µM
  IC90: 51.3 µM

## c1ccc(-c2ccc(C(c3ccccc3)n3ccnc3)cc2)cc1 (stereo unspecified)
  IC50: 19.7 µM
  IC90: 31.7 µM

## Cc1sc2ncnc(N3CCC(C(=O)NCC(=O)Nc4ccc(F)c(F)c4)CC3)c2c1C
  IC50: 37.9 µM
  IC90: 50 µM

## CCOC(=O)C1=NOC(CNc2ncc(C(F)(F)F)cc2Cl)C1 (stereo unspecified)
  IC50: 7.03 µM
  IC90: 14.1 µM

## CCCCCC(=O)Nc1cccc2ccccc12
  IC50: 14.1 µM
  IC90: > 100 µM

## Fc1ccc2[nH]c3c(NCc4ccccc4)ncnc3c2c1
  IC50: 23.5 µM
  IC90: 26.7 µM

## O=c1/c(=C\c2ccc(O)cc2)sc2n1C(c1ccccc1)C(c1ccccc1)=NN=2 (stereo unspecified)
  IC50: 55.7 µM
  IC90: 87.2 µM

## CCCCCCSc1nsc(NC(=O)CC(C)C)n1
  IC90: > 100 µM

## Cc1[nH]n(S(=O)(=O)Cc2ccccc2)c(=O)c1N=Nc1ccccc1Cl
  IC50: 5.57 µM
  IC90: 8.53 µM

## COC(=O)c1ccc(C(=O)OC)c(NC(=O)CSc2cccc[n+]2[O-])c1
  IC50: 2.97 µM
  IC90: 3.37 µM

## Cc1ccc(C(=O)N/C(=C/c2ccc(-c3cc(C(F)(F)F)ccc3Cl)o2)C(=O)NCc2cccnc2)cc1
  IC50: 37.8 µM
  IC90: > 100 µM

## O=C(CSc1cccc[n+]1[O-])c1cccs1
  IC50: 12 µM
  IC90: 16.5 µM

## COc1ccc(-n2nc3c(c2NC(=O)CCl)CSC3)cc1
  IC50: 4.85 µM
  IC90: 9.39 µM

## CSCCC(=O)N1CCCC(CNC(=O)c2ccc(-c3ccccc3)cc2)C1 (stereo unspecified)
  IC50: 39.1 µM
  IC90: 87.8 µM

## CCCSc1nn2c(=O)c3ccccc3nc2s1
  IC50: 8.34 µM
  IC90: 25.2 µM

## CN(C)CCCN(C(=O)c1cc(-c2cccs2)nc2ccccc12)c1nc2ccc(F)cc2s1
  IC50: 41 µM
  IC90: 55.5 µM

## CC(C)C[C@H]1C(=O)N2CCC[C@H]2[C@]2(O)O[C@](NC(=O)C3C=C4c5cccc6[nH]c(Br)c(c56)C[C@H]4N(C)C3)(C(C)C)C(=O)N12 (stereo partly specified)
  IC90: > 100 µM

## Cc1ccc2[nH]c(C(=O)NN=C3CCCCC3)c(-c3ccccc3)c2c1
  IC50: 29 µM
  IC90: 56.6 µM

## Cc1ncc(C23CC4CC(CC(C4)C2)C3)[nH]1
  IC50: 49.9 µM
  IC90: 51.5 µM

## CC(C)NC(=S)N/N=C/c1cc(Br)ccc1O
  IC50: 6.79 µM
  IC90: 18.3 µM

## CCN(CC)CCCNc1nc2cc(OC)c(OC)cc2c2nc(-c3ccccc3)nn12
  IC50: 4.71 µM
  IC90: 6 µM

## O=C(Oc1c(Cl)cc(Cl)c2cccnc12)c1cccs1
  IC50: 0.89 µM
  IC90: 1.24 µM

## O=[N+]([O-])c1ccc(-n2cnc3ccccc32)c([N+](=O)[O-])c1
  IC50: 1.61 µM
  IC90: 5.96 µM

## CC(C)n1cnc2c(NCc3ccccc3)cc(Cc3ccc(F)cc3)cc21
  IC50: 26.9 µM
  IC90: 36.5 µM

## c1ccc(-c2nc3c(ccc4ccccc43)[nH]2)nc1
  IC50: 6.75 µM
  IC90: 20.3 µM

## O=C(C=C=Nc1ccccc1)C(=O)N=C=Cc1ccccc1
  IC50: 5.31 µM
  IC90: 13.1 µM

## CC[C@H](C)[C@@H]1O[C@@]2(C=CC1C)CC1C[C@@H](CC=C(C)C(O[C@H]3CC(OC)C(O[C@H]4CC(OC)C(O)C(C)O4)C(C)O3)C(C)C=CC=C3CO[C@@H]4C(O)C(C)=C[C@@H](C(=O)O1)[C@]34O)O2 (stereo partly specified)
  IC50: 12.7 µM
  IC90: 18.1 µM

## O=C(Nc1ccc(OC(F)(F)F)cc1)c1ccc2c(c1)no[n+]2[O-]
  IC50: < 0.2 µM
  IC90: 0.2 µM

## CCOc1cc2c3c(c1)C1(C(=O)N3C(C)(C)CC2C)C(C#N)=C(N)N2C(=C1C#N)Nc1ccccc12 (stereo unspecified)
  IC50: 22.4 µM
  IC90: > 100 µM

## O=C(OCc1ccccc1)/C(=C(\O)c1ccccc1Br)c1ccc(-c2ccccc2)cn1
  IC50: 23.9 µM
  IC90: 45.8 µM

## CCCCCCOC(=O)C(C#N)c1nc2ccccc2nc1N1CCN(CC)CC1 (stereo unspecified)
  IC50: 20.1 µM
  IC90: 29.7 µM

## Nc1cc([N+](=O)[O-])cc2oc(-c3ccccc3)cc12
  IC50: 98.3 µM
  IC90: > 100 µM

## C/C(O)=C\c1nc2ccccc2oc1=O
  IC50: 0.77 µM
  IC90: 0.86 µM

## Cc1nc(S/C(=C/c2ccc(-c3ccc(Cl)cc3)o2)C(=O)O)n[nH]1
  IC50: 18.4 µM
  IC90: > 100 µM

## CC[n+]1c(/C=C/N(C)c2ccccc2)n(-c2ccccc2)c2ccc(-c3nc4ccccc4s3)cc21
  IC50: 0.87 µM
  IC90: 1.27 µM

## CCOC(=O)c1c(-c2ccc(OC)cc2)csc1NC(=O)CNCc1ccco1
  IC50: 10.9 µM
  IC90: 16.4 µM

## C/C(=N/Nc1ccnc2cc(Cl)ccc12)c1ccc(O)cc1
  IC50: 23.7 µM
  IC90: 27.2 µM

## Cn1ccc(=Nc2ccc(NC(=O)c3ccc(N=c4ccn(C)c5ccc([N+](=O)[O-])cc45)cc3)cc2)cc1
  IC50: < 0.2 µM
  IC90: < 0.2 µM

## CCN(CC)CCNC(=O)c1ccc(NC(=O)c2cn(-c3ccccc3)nc2-c2cccs2)cc1
  IC50: 19 µM
  IC90: 27.1 µM

## COc1cccc(-c2nnc(NC(=O)c3ccc(S(=O)(=O)N4CCOCC4)cc3)o2)c1
  IC50: 23.6 µM
  IC90: 26.7 µM

## Cc1cc(/C=N\NC(=O)c2cccs2)c(C)n1-c1ccc2ncccc2c1
  IC50: 12.1 µM
  IC90: 31.7 µM

## Cc1cc(C)cc(NC(=O)c2ccc(Cn3nc(C)c(Cl)c3C)o2)c1
  IC50: 30.8 µM
  IC90: 41.9 µM

## Cn1nc(-c2ccccn2)nc2c(=O)n(C)c(=O)nc1-2
  IC50: 9.04 µM
  IC90: 14.5 µM

## Oc1ccc(-[n+]2c(-c3ccccc3)cc(-c3ccccc3)cc2-c2ccccc2)cc1
  IC50: 11.7 µM
  IC90: 18.8 µM

## CCOC(=O)c1cnc2ccc(OCC)cc2c1N1CCN(c2ccccc2)CC1
  IC50: 27.1 µM
  IC90: > 100 µM

## COc1ccccc1N(C)S(=O)(=O)c1ccc(C(=O)Nc2ccc3nc(C)sc3c2)cc1
  IC50: 58.2 µM
  IC90: > 100 µM

## OCC1(Cc2cccc(Cl)c2)CCCN(Cc2ccc3cc(F)ccc3n2)C1 (stereo unspecified)
  IC50: 45.8 µM
  IC90: 52.1 µM

## Cc1cc(C2=NNC(=NC3CCCCC3)SC2)c(C)n1-c1c(C)n(C)n(-c2ccccc2)c1=O
  IC50: 88.2 µM
  IC90: > 100 µM

## O=C(OCC(=O)N1CCN(C(=O)c2ccco2)CC1)c1cc(-c2cccc(Br)c2)nc2ccccc12
  IC50: 95.2 µM
  IC90: > 100 µM

## Cc1nc2ccccc2c2nc3ccccc3n12
  IC50: 33.8 µM
  IC90: 55.2 µM

## O=C(O)c1ccc(N2C(=O)/C(=C/c3ccc(-c4ccc([N+](=O)[O-])cc4)o3)C=C2c2ccccc2)cc1
  IC50: 17.2 µM
  IC90: 40.2 µM

## Cn1c2ccccc2c2cc(C(=O)NNC(=O)CCl)sc21
  IC50: 1.72 µM
  IC90: 3.91 µM

## Cc1nn(-c2ccccc2)c(N)c1C(c1ccc(C(C)C)cc1)c1c(C)nn(-c2ccccc2)c1N
  IC50: 20.4 µM
  IC90: 27.1 µM

## Cc1cc(C)nc(Sc2ncnc(N)c2[N+](=O)[O-])n1
  IC50: 7.98 µM
  IC90: 20.7 µM

## COc1cc2c(cc1OC)C1(Nc3c-2c(-c2ccccc2)nn3-c2ccccc2)C(=O)Nc2ccccc21 (stereo unspecified)
  IC50: 90.5 µM
  IC90: > 100 µM

## O=Cc1ccc(-c2ccc(Cl)cc2Cl)[nH]1
  IC90: > 100 µM

## CCCCCCC#Cc1ccc2c(c1)COc1c3ccccc3nn1-2
  IC50: 93.8 µM
  IC90: > 100 µM

## O=C(c1ccc(Cl)cc1)N1N=C(c2ccccn2)CC1(O)C(F)(F)F (stereo unspecified)
  IC50: 2.21 µM
  IC90: > 100 µM

## O=C1CN(CC(=O)N2CCCCC2)c2ccccc2O1
  IC50: 23.6 µM
  IC90: 27.4 µM

## O=c1[nH]c2ccccc2c2oc(CCl)nc12
  IC50: 1.14 µM
  IC90: 19.2 µM

## Cc1cc2c(cc1C)/C(=N/NC(=O)c1ccccn1)CCC2
  IC50: 7.91 µM
  IC90: 23.2 µM

## Cc1cc(-n2c(C)cc(C(=O)COc3ccc4ccc(=O)oc4c3)c2C)no1
  IC50: 68.6 µM
  IC90: > 100 µM

## Cc1ccc(NC(=O)COc2ccccc2CNC(C)(C)CC(C)(C)C)cc1
  IC50: 22.6 µM
  IC90: 29.8 µM

## CN1CCN(CC(=O)N2CCn3c4c(c5cc(C6CCCCC6)ccc53)CCCC42)CC1 (stereo unspecified)
  IC50: 21.7 µM
  IC90: 23.6 µM

## O=C(OCc1nc2ccccc2s1)c1ccc(Br)o1
  IC50: 18.9 µM
  IC90: > 100 µM
